Experimental data from US6720346B2, “Thiazole benzamide derivatives and pharmaceutical compositions for inhibiting cell proliferation” (Agouron Pharmaceuticals, Inc., priority 2001, dated 2004).

Experiments:
[1] = target: T1, CDK2/cyclin A (Homo sapiens, UniProt P24941); assay: Inhibition of CDK2/cyclin A retinoblastoma kinase activity (Ki; % inhibition); type: biochemical; conditions: for Ki: apparent Ki, CDK2/cyclin A, Rb substrate
T1 construct: made in house; host or cells: CDK2: insect cells (baculovirus); cyclin A: E. coli
Method in brief: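 Radiometric filter assay of CDK2/proteolyzed cyclin A (baculovirus-expressed human CDK2, 10 or 19 nM) phosphorylating an Rb fragment with 25 μM [³²P/³³P]ATP in pH 7.4 HEPES, 2% DMSO, at 30 °C for 60 or 75 min under initial-rate conditions. Library compounds screened at 30 nM for % inhibition; apparent Ki from concentration series fit to competitive or tight-binding inhibition equations.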

[2] = target: T2, human CDK4/cyclin D3 (Homo sapiens, UniProt P11802); assay: Inhibition of CDK4/cyclin D retinoblastoma kinase activity (Ki; % inhibition); type: biochemical; conditions: for Ki: apparent Ki, CDK4/cyclin D3, Rb substrate
T2 construct: made in house; host or cells: insect cells co-infected with baculovirus vectors
Method in brief: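 Insect-cell-expressed CDK4 with truncated cyclin D3 (1-264), 5 nM, phosphorylating His-tagged Rb fragment (386-928) with 25 μM [32/33P]ATP at pH 7.4, 30 °C, 20 min (60 min for tight binders). Filter capture, phosphorimager read; % inhibition at 30 nM compound, Ki from competitive or tight-binding fits.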

[3] = test system: HCT-116 cell line; assay: Inhibition of cell growth, MTT tetrazolium salt assay; type: cell-based; conditions: for IC50: Homo sapiens, HCT-116, 120 h, MTT, three to five days
Method in brief: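 HCT-116 cells in McCoy's 5A were dosed 4 h after plating with compounds in 0.5% DMSO and grown 3–5 days at 37 °C. Then 0.2 mg/mL MTT was added for 4 h and formazan absorbance read at 540 nm. IC50/IC90 came from semi-log plots against DMSO-only controls.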

[4] = HCT-116 cells, 0.25 μM compound

T2 sequence (P11802 whole entry): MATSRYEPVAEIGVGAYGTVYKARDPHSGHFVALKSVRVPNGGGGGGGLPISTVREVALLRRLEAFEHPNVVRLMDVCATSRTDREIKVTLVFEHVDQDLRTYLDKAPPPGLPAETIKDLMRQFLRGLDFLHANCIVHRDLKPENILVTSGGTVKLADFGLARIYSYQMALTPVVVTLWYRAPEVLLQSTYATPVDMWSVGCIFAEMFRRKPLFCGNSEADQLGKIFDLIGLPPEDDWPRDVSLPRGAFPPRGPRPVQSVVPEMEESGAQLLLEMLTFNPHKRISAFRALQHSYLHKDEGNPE
T2 sequence (P30281 1-264 partner limits assumed): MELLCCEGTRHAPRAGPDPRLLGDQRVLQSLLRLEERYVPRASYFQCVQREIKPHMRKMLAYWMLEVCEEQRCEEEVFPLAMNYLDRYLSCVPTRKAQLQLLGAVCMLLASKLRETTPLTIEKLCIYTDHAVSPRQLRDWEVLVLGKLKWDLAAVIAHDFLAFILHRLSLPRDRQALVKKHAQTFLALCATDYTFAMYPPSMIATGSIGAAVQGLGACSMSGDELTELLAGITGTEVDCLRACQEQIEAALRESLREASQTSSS

Compound | CDK2 % Inhibition at 0.03 μM ([1]; 0.03 μM compound) | CDK4 % Inhibition at 0.03 μM ([2]; 0.03 μM compound) | HCT-116 % Inhibition at 0.1 μM ([3]; HCT-116 cells, 0.1 μM compound) | HCT-116 % Inhibition at 0.25 μM [3, 4] | CDK2 % Inhibition at 0.03 μM ([1]; at 0.03 μM) | CDK4 % Inhibition at 0.03 μM ([2]; at 0.03 μM) | HCT-116 % Inhibition at 0.25 μM ([3]; HCT-116, at 0.25 μM) | also measured
COC(=O)c1ccc(NC(=O)c2ccc(Nc3nc(N)c(C(=O)c4c(F)cccc4F)s3)cc2)cc1OC [Example G220] | 10% | 12% | 18% | 54% | – | – | – | –
CCN(CC)CCN(CC)C(=O)c1ccc(Nc2nc(N)c(C(=O)c3c(F)cccc3F)s2)cc1 [Example G35] | – | – | – | – | 5% | 8% | 53% | –
Nc1nc(Nc2ccc(C(=O)NCc3ccccc3Cl)cc2)sc1C(=O)c1c(F)cccc1F [Example G228] | 38% | 36% | 24% | 75% | – | – | – | –
CN1CCC[C@H]1CNC(=O)c1ccc(Nc2nc(N)c(C(=O)c3c(F)cccc3Cl)s2)cc1 [Example A71, 4-[4-Amino-5-(2-chloro-6-fluoro-benzoyl)-thiazol-2-ylamino]-N-(1-methyl-pyrrolidin-2S-ylmethyl)-benzamide] | – | – | – | – | – | – | – | Ki [1]: 5.6 nM; Ki [2]: 82 nM; IC50 [3]: 34 nM
Nc1nc(Nc2ccc(C(=O)N3CCN(Cc4ccc5c(c4)OCO5)CC3)cc2)sc1C(=O)c1c(F)cccc1F [Example G62] | – | – | – | – | 7% | 22% | 50% | –
Nc1nc(Nc2ccc(C(=O)NCCc3ccccc3F)cc2)sc1C(=O)c1c(F)cccc1F [Example G206] | 13% | 19% | 13% | 58% | – | – | – | –
CC(CCc1ccccc1)NC(=O)c1ccc(Nc2nc(N)c(C(=O)c3c(F)cccc3F)s2)cc1 (stereo not shown) [Example G133] | – | – | – | – | −6% | 13% | 47% | HCT-116 % Inhibition at 0.1 μM ([3]; HCT-116, at 0.1 μM): 0%
CSCCC(CO)NC(=O)c1ccc(Nc2nc(N)c(C(=O)c3c(F)cccc3F)s2)cc1 (stereo not shown) [Example G386] | 19% | 12% | 28% | 51% | – | – | – | –
Cc1ccc(NC(=O)c2ccc(Nc3nc(N)c(C(=O)c4c(F)cccc4F)s3)cc2)nc1 [Example G352] | 4% | 0% | 24% | 64% | – | – | – | –
Nc1nc(Nc2ccc(C(=O)Nc3ccc(S(N)(=O)=O)cc3)cc2)sc1C(=O)c1c(F)cccc1F [Example G82] | – | – | – | – | 24% | 15% | 48% | –
CN1CCN(C(=O)c2ccc(Nc3nc(N)c(C(=O)c4c(F)cccc4F)s3)cc2)CC1 [Example G2] | – | – | – | – | −9% | 8% | 51% | –
Nc1nc(Nc2ccc(C(=O)Nc3ccc4ncccc4c3)cc2)sc1C(=O)c1c(F)cccc1F [Example G75] | – | – | – | – | 21% | 15% | 64% | –
COc1ccc(OC)c(CCNC(=O)c2ccc(Nc3nc(N)c(C(=O)c4c(F)cccc4F)s3)cc2)c1 [Example G319] | −5% | 14% | 17% | 54% | – | – | – | –
Cc1ccc(NC(=O)c2ccc(Nc3nc(N)c(C(=O)c4c(F)cccc4F)s3)cc2)cc1Cl [Example G8] | – | – | – | – | −1% | −5% | 50% | –
CCCN(CC1CC1)C(=O)c1ccc(Nc2nc(N)c(C(=O)c3c(F)cccc3F)s2)cc1 [Example G1] | – | – | – | – | −3% | −10% | 56% | –
Nc1nc(Nc2ccc(C(=O)NCc3ccc(F)c(C(F)(F)F)c3)cc2)sc1C(=O)c1c(F)cccc1F [Example G302] | 17% | 29% | 17% | 63% | – | – | – | –
CN(C)C1(CNC(=O)c2ccc(Nc3nc(N)c(C(=O)c4c(F)cccc4F)s3)cc2)CCC1 [Example A78, 4-{[4-Amino-5-(2,6-difluorobenzoyl)-1,3-thiazol-2-yl]amino}-N-{[1-(dimethylamino)cyclobutyl]methyl}benzamide] | – | – | – | – | – | – | – | Ki [1]: 110 nM; Ki [2]: 8.2 nM; IC50 [3]: 130 nM
CCCOCCNC(=O)c1ccc(Nc2nc(N)c(C(=O)c3c(F)cccc3F)s2)cc1 [Example G165] | – | – | – | – | 1% | 22% | 61% | HCT-116 % Inhibition at 0.1 μM ([3]; HCT-116, at 0.1 μM): 0%

Compound | CDK2 % Inhibition at 0.03 μM ([1]; 0.03 μM compound) | CDK4 % Inhibition at 0.03 μM ([2]; 0.03 μM compound) | HCT-116 % Inhibition at 0.1 μM ([3]; HCT-116 cells, 0.1 μM compound) | HCT-116 % Inhibition at 0.25 μM [3, 4] | CDK2 % Inhibition at 0.03 μM ([1]; at 0.03 μM) | CDK4 % Inhibition at 0.03 μM ([2]; at 0.03 μM) | HCT-116 % Inhibition at 0.25 μM ([3]; HCT-116, at 0.25 μM) | also measured
Nc1nc(Nc2ccc(C(=O)NCCC3=CCCCC3)cc2)sc1C(=O)c1c(F)cccc1F [Example G337] | 7% | 11% | 13% | 52% | – | – | – | –
COc1ccc(NC(=O)c2ccc(Nc3nc(N)c(C(=O)c4c(F)cccc4F)s3)cc2)cc1OC [Example G212] | 16% | 20% | 17% | 53% | – | – | – | –
CN(CCO)C(=O)c1ccc(Nc2nc(N)c(C(=O)c3c(F)cccc3F)s2)cc1 [Example G17] | – | – | – | – | 2% | 7% | 45% | –
Nc1nc(Nc2ccc(C(=O)Nc3cccc4ncccc34)cc2)sc1C(=O)c1c(F)cccc1F [Example G67] | – | – | – | – | 25% | 12% | 82% | –
CC(C)c1ccc(NC(=O)c2ccc(Nc3nc(N)c(C(=O)c4c(F)cccc4F)s3)cc2)cc1 [Example G69] | – | – | – | – | 7% | 3% | 70% | –
Nc1nc(Nc2ccc(C(=O)NCCN3CCOCC3)cc2)sc1C(=O)c1c(F)cccc1F [Example A1, 4-[4-Amino-5-(2,6-difluoro-benzoyl)-thiazol-2-ylamino]-N-(2-morpholin-4-yl-ethyl)-benzamide] | – | – | – | – | – | – | – | Ki [1]: 140 nM; Ki [2]: 27 nM; IC50 [3]: 750 nM
C=C(C)CNC(=O)c1ccc(Nc2nc(N)c(C(=O)c3c(F)cccc3F)s2)cc1 [Example G223] | 14% | 19% | 14% | 50% | – | – | – | –
CN(Cc1cccnc1)C(=O)c1ccc(Nc2nc(N)c(C(=O)c3c(F)cccc3F)s2)cc1 [Example G20] | – | – | – | – | 10% | 9% | 50% | –
CCN(CCNC(=O)c1ccc(Nc2nc(N)c(C(=O)c3c(F)cccc3F)s2)cc1)c1cccc(C)c1 [Example G226] | 48% | 44% | 15% | 56% | – | – | – | –
Nc1nc(Nc2ccc(C(=O)NCCCN(CCO)CCO)cc2)sc1C(=O)c1c(F)cccc1F [Example G339] | 6% | 34% | 9% | 48% | – | – | – | –
COC(=O)c1ccc(NC(=O)c2ccc(Nc3nc(N)c(C(=O)c4c(F)cccc4F)s3)cc2)c(C)c1 [Example G354] | 9% | 3% | 31% | 60% | – | – | – | –
Cc1cc(NC(=O)c2ccc(Nc3nc(N)c(C(=O)c4c(F)cccc4F)s3)cc2)ccc1C(C)C [Example G107] | – | – | – | – | −5% | 12% | 59% | HCT-116 % Inhibition at 0.1 μM ([3]; HCT-116, at 0.1 μM): 5%
CC(C)CN(C)C(=O)c1ccc(Nc2nc(N)c(C(=O)c3c(F)cccc3F)s2)cc1 [Example G72] | – | – | – | – | 2% | 12% | 54% | –
Cc1ccc(CCNC(=O)c2ccc(Nc3nc(N)c(C(=O)c4c(F)cccc4F)s3)cc2)cc1 [Example G111] | – | – | – | – | 15% | 20% | 52% | HCT-116 % Inhibition at 0.1 μM ([3]; HCT-116, at 0.1 μM): 0%
Nc1nc(Nc2ccc(C(=O)NCc3cccc(F)c3)cc2)sc1C(=O)c1c(F)cccc1F [Example G252] | 29% | 31% | 33% | 67% | – | – | – | –
Cc1ccc(CNC(=O)c2ccc(Nc3nc(N)c(C(=O)c4c(F)cccc4F)s3)cc2)cc1 [Example G253] | 16% | 26% | 19% | 62% | – | – | – | –
CN1CCCC[C@H]1CNC(=O)c1ccc(Nc2nc(N)c(C(=O)c3c(F)cccc3F)s2)cc1 [Example A43, 4-[4-Amino-5-(2,6-difluoro-benzoyl)-thiazol-2-ylamino]-N-(1-methyl-piperidin-2S-yl-methyl)-benzamide] | – | – | – | – | – | – | – | Ki [1]: 109 nM; Ki [2]: 13 nM; IC50 [3]: 580 nM
